Data: patent publication US20260345619A1 (Principia Biopharma Inc., priority 2023, published 2026)

Assay: Pre-bronchodilator FEV1 and percent predicted FEV1 by spirometry, change from baseline
Type: in vivo, human
Settings: 400 mg BID, Week 12
Experimental: Spirometry is a standard test to measure patients' lung function.
The primary endpoint was the proportion of patients with LOAC. The key secondary endpoint for the study was change in pre-bronchodilator FEV1 from baseline at EOT.
Reversibility is defined as an increase of the absolute FEV1 after administration of bronchodilator and is measured by spirometry as postbronchodilator increase in FEV1 in percent of the prebronchodilator FEV1. After spirometry for measuring prebronchodilator FEV1, participants were to receive 2-4 puffs of albuterol/salbutamol or levalbuterol/levosalbutamol from a primed MDI. The postbronchodilator spirometry may have been repeated several times within 30 minutes after administration of bronchodilator. Alternatively, and only if it was consistent with usual office practice (to be documented), reversibility may have been performed using inhalation of nebulized albuterol/salbutamol or levalbuterol/levosalbutamol.
Secondary endpoints included pre-bronchodilator FEV1 change from baseline at EOT, ACQ-5 score change from baseline, and AQLQ score change from baseline. Other secondary and exploratory endpoints are described in Table 2.

[1] = >2 exacerbations within 2 years
[2] = baseline FEV1 <2.022 L (median)
[3] = baseline FEV1 reversibility <12%
[4] = baseline FEV1 reversibility ≥12%
[5] = baseline FEV1 ≥2.022 L (median)
[6] = baseline IgE <210.8 IU/mL (median)
[7] = baseline IgE ≥210.8 IU/mL (median)
[8] = baseline blood eosinophils <0.15 10^9/L
[9] = baseline blood eosinophils <0.3 10^9/L
[10] = baseline blood eosinophils ≥0.15 10^9/L
[11] = baseline blood eosinophils ≥0.3 10^9/L
[12] = baseline percent predicted FEV1 <68% (median)
[13] = baseline percent predicted FEV1 ≥68% (median)

CC(C)(C=C(C#N)C(=O)N1CCC[C@@H](n2nc(-c3ccc(Oc4ccccc4)cc3F)c3c(N)ncnc32)C1)N1CCN(C2COC2)CC1 (mixture of isomers) [rilzabrutinib, (R)-2-[3-[4-amino-3-(2-fluoro-4-phenoxy-phenyl)pyrazolo[3,4-d]pyrimidin-1-yl]piperidine-1-carbonyl]-4-methyl-4-[4-(oxetan-3-yl)piperazin-1-yl]pent-2-enenitrile]
Pre-bronchodilator FEV1 change from baseline, LS Mean (1 exacerbation within 2 years): -0.08 L
Pre-bronchodilator FEV1 change from baseline, LS Mean Diff vs. placebo (1 exacerbation within 2 years): -0.05 L
Pre-bronchodilator FEV1 change from baseline, Mean (1 exacerbation within 2 years): 0.05 L
Pre-bronchodilator FEV1 change from baseline, LS Mean (2 exacerbations within 2 years): -0.01 L
Pre-bronchodilator FEV1 change from baseline, LS Mean Diff vs. placebo (2 exacerbations within 2 years): 0.10 L
Pre-bronchodilator FEV1 change from baseline, Mean (2 exacerbations within 2 years): -0.06 L
Pre-bronchodilator FEV1 change from baseline, LS Mean [1]: -0.36 L
Pre-bronchodilator FEV1 change from baseline, LS Mean Diff vs. placebo [1]: -0.16 L
Pre-bronchodilator FEV1 change from baseline, Mean [1]: -0.15 L
Pre-bronchodilator FEV1 change from baseline, Mean (APAC): -0.09 L
Pre-bronchodilator FEV1 change from baseline, Mean (Eastern Europe): -0.21 L
Pre-bronchodilator FEV1 change from baseline, LS Mean (Latin America): -0.07 L
Pre-bronchodilator FEV1 change from baseline, LS Mean Diff vs. placebo (Latin America): -0.01 L
Pre-bronchodilator FEV1 change from baseline, Mean (Latin America): -0.05 L
Pre-bronchodilator FEV1 change from baseline, Mean (Western Countries): 0.24 L
Pre-bronchodilator FEV1 change from baseline, LS Mean (age <45 years): -0.13 L
Pre-bronchodilator FEV1 change from baseline, LS Mean Diff vs. placebo (age <45 years): -0.13 L
Pre-bronchodilator FEV1 change from baseline, Mean (age <45 years): -0.05 L
Pre-bronchodilator FEV1 change from baseline, LS Mean (age ≥45 years): -0.14 L
Pre-bronchodilator FEV1 change from baseline, LS Mean Diff vs. placebo (age ≥45 years): 0.02 L
Pre-bronchodilator FEV1 change from baseline, Mean (age ≥45 years): -0.03 L
Pre-bronchodilator FEV1 change from baseline, LS Mean (asthma onset age <12 years): 0.12 L
Pre-bronchodilator FEV1 change from baseline, LS Mean Diff vs. placebo (asthma onset age <12 years): 0.18 L
Pre-bronchodilator FEV1 change from baseline, Mean (asthma onset age <12 years): 0.00 L
Pre-bronchodilator FEV1 change from baseline, LS Mean (asthma onset age <18 years): -0.00 L
Pre-bronchodilator FEV1 change from baseline, LS Mean Diff vs. placebo (asthma onset age <18 years): 0.08 L
Pre-bronchodilator FEV1 change from baseline, Mean (asthma onset age <18 years): 0.04 L
Pre-bronchodilator FEV1 change from baseline, Mean (asthma onset age ≥12-<18 years): 0.12 L
Pre-bronchodilator FEV1 change from baseline, LS Mean (asthma onset age ≥18-<40 years): -0.14 L
Pre-bronchodilator FEV1 change from baseline, LS Mean Diff vs. placebo (asthma onset age ≥18-<40 years): 0.00 L
Pre-bronchodilator FEV1 change from baseline, Mean (asthma onset age ≥18-<40 years): -0.08 L
Pre-bronchodilator FEV1 change from baseline, LS Mean (asthma onset age ≥18 years): -0.17 L
Pre-bronchodilator FEV1 change from baseline, LS Mean Diff vs. placebo (asthma onset age ≥18 years): -0.03 L
Pre-bronchodilator FEV1 change from baseline, Mean (asthma onset age ≥18 years): -0.11 L
Pre-bronchodilator FEV1 change from baseline, LS Mean (asthma onset age ≥40 years): 0.00 L
Pre-bronchodilator FEV1 change from baseline, LS Mean Diff vs. placebo (asthma onset age ≥40 years): 0.07 L
Pre-bronchodilator FEV1 change from baseline, Mean (asthma onset age ≥40 years): -0.31 L
Pre-bronchodilator FEV1 change from baseline, LS Mean (atopic medical conditions: No): -0.15 L
Pre-bronchodilator FEV1 change from baseline, LS Mean Diff vs. placebo (atopic medical conditions: No): 0.10 L
Pre-bronchodilator FEV1 change from baseline, Mean (atopic medical conditions: No): -0.16 L
Pre-bronchodilator FEV1 change from baseline, LS Mean (atopic medical conditions: Yes): 0.02 L
Pre-bronchodilator FEV1 change from baseline, LS Mean Diff vs. placebo (atopic medical conditions: Yes): -0.03 L
Pre-bronchodilator FEV1 change from baseline, Mean (atopic medical conditions: Yes): 0.03 L
Pre-bronchodilator FEV1 change from baseline, LS Mean (background ICS/LABA dose High): -0.11 L
Pre-bronchodilator FEV1 change from baseline, LS Mean Diff vs. placebo (background ICS/LABA dose High): 0.02 L
Pre-bronchodilator FEV1 change from baseline, Mean (background ICS/LABA dose High): -0.05 L
Pre-bronchodilator FEV1 change from baseline, Mean (background ICS/LABA dose Medium): 0.04 L
Pre-bronchodilator FEV1 change from baseline, LS Mean (baseline ACQ-5 >2): -0.12 L
Pre-bronchodilator FEV1 change from baseline, LS Mean Diff vs. placebo (baseline ACQ-5 >2): -0.04 L
Pre-bronchodilator FEV1 change from baseline, Mean (baseline ACQ-5 >2): -0.09 L
Pre-bronchodilator FEV1 change from baseline, LS Mean (baseline ACQ-5 ≤2): -0.12 L
Pre-bronchodilator FEV1 change from baseline, LS Mean Diff vs. placebo (baseline ACQ-5 ≤2): 0.04 L
Pre-bronchodilator FEV1 change from baseline, Mean (baseline ACQ-5 ≤2): 0.00 L
Pre-bronchodilator FEV1 change from baseline, LS Mean (baseline BMI <25 kg/m^2): -0.09 L
Pre-bronchodilator FEV1 change from baseline, LS Mean Diff vs. placebo (baseline BMI <25 kg/m^2): 0.15 L
Pre-bronchodilator FEV1 change from baseline, Mean (baseline BMI <25 kg/m^2): 0.02 L
Pre-bronchodilator FEV1 change from baseline, LS Mean (baseline BMI ≥25-<30 kg/m^2): -0.06 L
Pre-bronchodilator FEV1 change from baseline, LS Mean Diff vs. placebo (baseline BMI ≥25-<30 kg/m^2): 0.06 L
Pre-bronchodilator FEV1 change from baseline, Mean (baseline BMI ≥25-<30 kg/m^2): -0.00 L
Pre-bronchodilator FEV1 change from baseline, LS Mean (baseline BMI ≥30 kg/m^2): -0.04 L
Pre-bronchodilator FEV1 change from baseline, LS Mean Diff vs. placebo (baseline BMI ≥30 kg/m^2): -0.13 L
Pre-bronchodilator FEV1 change from baseline, Mean (baseline BMI ≥30 kg/m^2): -0.18 L
Pre-bronchodilator FEV1 change from baseline, LS Mean [2]: -0.08 L
Pre-bronchodilator FEV1 change from baseline, LS Mean Diff vs. placebo [2]: 0.04 L
Pre-bronchodilator FEV1 change from baseline, Mean [2]: -0.06 L
Pre-bronchodilator FEV1 change from baseline, LS Mean [3]: -0.23 L
Pre-bronchodilator FEV1 change from baseline, LS Mean Diff vs. placebo [3]: -0.00 L
Pre-bronchodilator FEV1 change from baseline, Mean [3]: -0.24 L
Pre-bronchodilator FEV1 change from baseline, LS Mean [4]: 0.07 L
Pre-bronchodilator FEV1 change from baseline, LS Mean Diff vs. placebo [4]: -0.05 L
Pre-bronchodilator FEV1 change from baseline, Mean [4]: 0.08 L
Pre-bronchodilator FEV1 change from baseline, LS Mean [5]: -0.09 L
Pre-bronchodilator FEV1 change from baseline, LS Mean Diff vs. placebo [5]: -0.03 L
Pre-bronchodilator FEV1 change from baseline, Mean [5]: -0.02 L
Pre-bronchodilator FEV1 change from baseline, LS Mean (baseline FeNO <25 ppb): -0.16 L
Pre-bronchodilator FEV1 change from baseline, LS Mean Diff vs. placebo (baseline FeNO <25 ppb): 0.03 L
Pre-bronchodilator FEV1 change from baseline, Mean (baseline FeNO <25 ppb): -0.12 L
Pre-bronchodilator FEV1 change from baseline, LS Mean (baseline FeNO <35 ppb): -0.19 L
Pre-bronchodilator FEV1 change from baseline, LS Mean Diff vs. placebo (baseline FeNO <35 ppb): -0.04 L
Pre-bronchodilator FEV1 change from baseline, Mean (baseline FeNO <35 ppb): -0.10 L
Pre-bronchodilator FEV1 change from baseline, LS Mean (baseline FeNO ≥25 ppb): -0.00 L
Pre-bronchodilator FEV1 change from baseline, LS Mean Diff vs. placebo (baseline FeNO ≥25 ppb): -0.01 L
Pre-bronchodilator FEV1 change from baseline, Mean (baseline FeNO ≥25 ppb): 0.01 L
Pre-bronchodilator FEV1 change from baseline, LS Mean (baseline FeNO ≥35 ppb): 0.05 L
Pre-bronchodilator FEV1 change from baseline, LS Mean Diff vs. placebo (baseline FeNO ≥35 ppb): 0.06 L
Pre-bronchodilator FEV1 change from baseline, Mean (baseline FeNO ≥35 ppb): 0.08 L
Pre-bronchodilator FEV1 change from baseline, LS Mean (baseline IgE <100 IU/mL): -0.11 L
Pre-bronchodilator FEV1 change from baseline, LS Mean Diff vs. placebo (baseline IgE <100 IU/mL): -0.03 L
Pre-bronchodilator FEV1 change from baseline, Mean (baseline IgE <100 IU/mL): -0.09 L
Pre-bronchodilator FEV1 change from baseline, LS Mean [6]: -0.11 L
Pre-bronchodilator FEV1 change from baseline, LS Mean Diff vs. placebo [6]: 0.01 L
Pre-bronchodilator FEV1 change from baseline, Mean [6]: -0.02 L
Pre-bronchodilator FEV1 change from baseline, LS Mean (baseline IgE ≥100 IU/mL): -0.04 L
Pre-bronchodilator FEV1 change from baseline, LS Mean Diff vs. placebo (baseline IgE ≥100 IU/mL): 0.02 L
Pre-bronchodilator FEV1 change from baseline, Mean (baseline IgE ≥100 IU/mL): -0.02 L
Pre-bronchodilator FEV1 change from baseline, LS Mean [7]: -0.02 L
Pre-bronchodilator FEV1 change from baseline, LS Mean Diff vs. placebo [7]: 0.01 L
Pre-bronchodilator FEV1 change from baseline, Mean [7]: -0.08 L
Pre-bronchodilator FEV1 change from baseline, LS Mean [8]: -0.08 L
Pre-bronchodilator FEV1 change from baseline, LS Mean Diff vs. placebo [8]: -0.04 L
Pre-bronchodilator FEV1 change from baseline, Mean [8]: -0.10 L
Pre-bronchodilator FEV1 change from baseline, LS Mean [9]: -0.15 L
Pre-bronchodilator FEV1 change from baseline, LS Mean Diff vs. placebo [9]: -0.07 L
Pre-bronchodilator FEV1 change from baseline, Mean [9]: -0.10 L
Pre-bronchodilator FEV1 change from baseline, LS Mean [10]: -0.03 L
Pre-bronchodilator FEV1 change from baseline, LS Mean Diff vs. placebo [10]: 0.07 L
Pre-bronchodilator FEV1 change from baseline, Mean [10]: -0.01 L
Pre-bronchodilator FEV1 change from baseline, LS Mean Diff vs. placebo [11]: 0.07 L
Pre-bronchodilator FEV1 change from baseline, Mean [11]: 0.04 L
Pre-bronchodilator FEV1 change from baseline, LS Mean [12]: -0.21 L
Pre-bronchodilator FEV1 change from baseline, LS Mean Diff vs. placebo [12]: 0.03 L
Pre-bronchodilator FEV1 change from baseline, Mean [12]: -0.05 L
Pre-bronchodilator FEV1 change from baseline, LS Mean [13]: -0.07 L
Pre-bronchodilator FEV1 change from baseline, LS Mean Diff vs. placebo [13]: -0.01 L
Pre-bronchodilator FEV1 change from baseline, Mean [13]: -0.02 L
Pre-bronchodilator FEV1 change from baseline, Mean (baseline weight <60 kg): -0.02 L
Pre-bronchodilator FEV1 change from baseline, LS Mean (baseline weight ≥60-<90 kg): -0.09 L
Pre-bronchodilator FEV1 change from baseline, LS Mean Diff vs. placebo (baseline weight ≥60-<90 kg): 0.03 L
Pre-bronchodilator FEV1 change from baseline, Mean (baseline weight ≥60-<90 kg): -0.01 L
